Test results reported in patent US10028961B2, “Therapeutically active compounds and their methods of use” (AGIOS PHARMACEUTICALS, INC., priority 2013, dated 2018).
Where two headings read alike, the source gives them in different places.

What was measured:
[1] = target: IDH1 wt/IDH1 R132H heterodimer (Homo sapiens (Human), UniProt O75874, R132H); assay: In vitro assay for IDH1m R132H inhibitors, IDH1 wt/IDH1 R132H heterodimer, NADPH depletion (diaphorase/resazurin); format: biochemical
Protocol: The following describes the experimental procedures that can be used to obtain data on columns 2 and 4 of Table 4 and column 2 of Table 5.
In the primary reaction, the reduction of α-KG acid to 2-HG is accompanied by a concomitant oxidation of NADPH to NADP. The amount of NADPH remaining at the end of the reaction time is measured in a secondary diaphorase/resazurin reaction in which the NADPH is consumed in a 1:1 molar ratio with the conversion of resazurin to the highly fluorescent resorufin.
The mixture of compound, enzyme, and cofactor is pre-incubated at room temperature for 1 hr prior to the addition of alpha-ketoglutarate. To perform the secondary reaction, 10 uL of 1× buffer containing 36 μg/ml diaphorase and […] resazurin is added to the primary reaction and incubated for a further 5 minutes at 25° C. […] Compounds or compound dilutions are prepared in 100% DMSO concentration and diluted 1:50 into the final reaction. […] IC50s are determined.
IDH1 or IDH2 wildtype (wt) and mutant heterodimers are expressed and purified by methods known in the art. […] Co-expression of IDH1wt-his and IDH1R132C-flag is carried out in sf9 insect cells. Cells (25 g) are resuspended in 250 ml of 50 mM Tirs, 500 mM NaCl, pH7.4, at 4° C. with stirring. Cells are disrupted with 4 passes through an M-Y110 Micro fluidizer (Microfluidics) set to 500 psi, and then centrifuged at 22,000 rcf for 20 min at 4° C. The supernatant is harvested and loaded at 15 cm/h on a Histrap FF 5*1 ml column (GE) which is equilibrated with 50 mM Tirs, 500 mM NaCl, pH7.4. Host cell contaminants are removed by washing the column with equilibration buffer followed by equilibration buffer containing 20 mM imidazole and 60 mM imidazole to baseline. IDH1wt-his homodimer and IDH1wt-his/IDH1R132C-flag are eluted by equilibration buffer containing 250 mM imidazole. Fractions eluted by 250 mM imidazole are pooled together and loaded at 15 cm/h onto a column pre-packed with 10 ml ANTI-FLAG® M2 Affinity Gel (Sigma), the column is equilibrated with 50 mM Tris, 500 mM NaCl, pH7.4. After washing with equilibration buffer, IDH1wt-his/IDH1R132C-flag heterodimer is eluted by equilibration buffer containing flag peptide (0.2 mg/ml). Aliquots of IDH1wt-his/IDH1R132C-flag are flash frozen in liquid N2 and stored at −80° C. Same conditions are used for the purification of IDH1wt-his/IDH1R132H-flag.

IDH2 R140Q = IDH2 R140Q (Homo sapiens (Human), UniProt P48735, R140Q); assay: In vitro assay for IDH2m R140Q inhibitors, cofactor depletion assay; format: biochemical; settings: IDH2 R140Q enzyme
Excerpt: The following describes the experimental procedures used to obtain data on column 7 of Table 4.
The reaction is terminated by the addition of a second enzyme, diaphorase, and a corresponding substrate, resazurin. Diaphorase reduces resazurin to the highly fluorescent resorufin with the concomitant oxidation of NADPH to NADP, both halting the IDH2 reaction by depleting the available cofactor pool and facilitating quantitation of the amount of cofactor remaining after a specific time period through quantitative production of an easily detected fluorophore.
The test compound is then incubated for one hour at room temperature with the enzyme; before starting the IDH2 reaction with the addition of 10 μl of substrate mix containing 4 μM NADPH and 1.6 mM α-KG in the buffer described above. After a further 16 hours of incubation at room temperature, the reaction is halted and the remaining NADPH measured through conversion of resazurin to resorufin by the addition of 25 μl Stop Mix (36 μg/ml diaphorase enzyme and 60 μM resazurin; in buffer).

[2] = tested on: U87MG pLVX-IDH2 R140Q-neo cells; assay: U87MG pLVX-IDH2 R140Q-neo cell based assay, 2-HG by LC-MS
[3] = tested on: Neurosphere cells (TS603); assay: Cellular assay for IDH1m R132H inhibitors, 2-HG by LC-MS in neurosphere cells (TS603); format: cell-based; settings: 2-HG in media at 48 hours
Protocol: Cellular Assay for IDH1m R132H Inhibitors.
The following describes the experimental procedures that can be used to obtain data in column 4 of Table 5.
Neurosphere cells (TS603) are grown at 37 C in 5% CO2 in Stem Cell Technologies NeuroCult™ NS-A media supplemented with 1% Primocin, 1% Normocin, 0.0002% Heparin, 20 ng/mL EGF and 10 ng/mL bFGF. Cells are harvested, pelleted and resuspended in Accumax for cell dissociation and counting. Cells are counted and then resuspended in NeuroCult media with 2× heparin, EGF and bFGF at 4 million cells/10 mL media. 100 μl of cell solution are plated in each well of a 96 well with the exception of columns 1 and 12. Columns 1 and 12 contain 200 μL PBS. Compound dose responses are set up at a 2× concentration in Neurocult media without heparin, EGF and bFGF. The final concentration of DMSO is 0.25%. DMSO only control wells are plated in row H. The plates are then placed in the incubator for 48 hours. At 48 hours, 100 μl of media is removed from each well and analyzed by LC-MS for 2-HG concentrations. The cell plate is placed back in the incubator for another 24 hours. At 72 hours post compound addition, 10 mL/plate of Promega Cell Titer Glo reagent is thawed and mixed. The cell plate is removed from the incubator and allowed to equilibrate to room temperature. Then 100 μl of Promega Cell Titer Glo reagent is added to each well of media. The cell plate is then placed on an orbital shaker for 10 minutes and then allowed to sit at room temperature for 20 minutes. The plate is then read for luminescence with an integration time of 500 ms.

[4] = IDH1 wt/IDH1 R132H heterodimer, 300 μM NADP (saturated), read-out: IDH1 wt/R132H NADPH/NADP IC50 saturated
[5] = IDH1 wt/R132H heterodimer, NADPH/NADP, not saturated, read-out: IDH1 wt/R132H NADPH/NADP IC50 not saturated

Sequence of IDH1 wt/IDH1 R132H heterodimer (O75874 whole entry R132H): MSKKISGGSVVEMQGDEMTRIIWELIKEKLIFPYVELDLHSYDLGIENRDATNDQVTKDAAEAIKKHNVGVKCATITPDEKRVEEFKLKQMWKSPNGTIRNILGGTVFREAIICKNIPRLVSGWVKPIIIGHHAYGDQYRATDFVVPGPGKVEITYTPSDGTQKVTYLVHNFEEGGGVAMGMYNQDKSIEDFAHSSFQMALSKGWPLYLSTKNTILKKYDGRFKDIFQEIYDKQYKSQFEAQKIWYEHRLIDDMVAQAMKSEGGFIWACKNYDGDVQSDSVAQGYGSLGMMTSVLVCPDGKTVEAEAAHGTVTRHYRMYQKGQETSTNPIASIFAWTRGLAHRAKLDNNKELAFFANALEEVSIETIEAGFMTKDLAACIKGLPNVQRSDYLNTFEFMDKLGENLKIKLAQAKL
Sequence of IDH1 wt/IDH1 R132H heterodimer (O75874 whole entry, stated change not applied): as the sequence (O75874 whole entry R132H) above, with H132R counted along it
Sequence of IDH2 R140Q (P48735 40-452 R140Q): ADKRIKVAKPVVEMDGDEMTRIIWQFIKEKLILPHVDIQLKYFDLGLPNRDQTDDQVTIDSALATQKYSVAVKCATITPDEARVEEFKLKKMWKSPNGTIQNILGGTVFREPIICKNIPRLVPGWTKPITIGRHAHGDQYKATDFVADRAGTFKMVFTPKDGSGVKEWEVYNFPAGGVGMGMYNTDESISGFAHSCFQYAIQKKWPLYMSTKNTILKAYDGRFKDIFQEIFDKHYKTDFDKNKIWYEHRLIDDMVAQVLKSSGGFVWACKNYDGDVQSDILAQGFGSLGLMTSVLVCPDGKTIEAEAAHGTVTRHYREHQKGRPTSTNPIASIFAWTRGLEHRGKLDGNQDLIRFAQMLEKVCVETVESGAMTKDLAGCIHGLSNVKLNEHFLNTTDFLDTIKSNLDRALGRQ

IC50 [1, 4] [nM]	IC50 (IDH2 R140Q) [nM]	IC50 ([2]; Homo sapiens, U-87 MG) [nM]	IC50 [3] [nM]	IC50 [1, 5] [nM]	IC50 [2] [nM]	Structure (SMILES)
< 50	< 50	< 50	< 50	–	–	CC[C@H](Nc1nc(N[C@@H](CC)C(F)(F)F)nc(-c2cncc(C(F)(F)F)n2)n1)C(F)(F)F [Compound 339]
50 to 100	< 50	< 50	< 50	–	–	FC(F)(F)c1cc(Nc2nc(NCC3CC3(F)F)nc(-c3cccc(C(F)(F)F)n3)n2)ccn1 (centres unmarked) [Compound 365]
–	–	–	≥ 1000	> 1000	–	FC1(F)CCC(Nc2nc(NC3CCC(F)(F)CC3)nc(-c3cc(C(F)(F)F)ccn3)n2)CC1 [Compound 318]
–	–	–	100 to 1000	> 1000	–	FC1(F)CCC(Nc2nc(NC3CCC(F)(F)CC3)nc(-c3cccc(C4CC4)n3)n2)CC1 [Compound 305]
–	–	–	< 50	< 50	–	FC1(F)CCC(Nc2nc(NC3Cc4ccc(Br)cc4C3)nc(-c3cccc(C(F)(F)F)n3)n2)C1 (centres unmarked) [Compound 225]
–	–	–	< 50	< 50	–	FC1(F)CCC(Nc2nc(NC3CCN(c4ccccc4)C3)nc(-c3cccc(C(F)(F)F)n3)n2)C1 (centres unmarked) [Compound 219]
–	> 1000	> 1000	–	100 to 1000	–	C[C@@H](Nc1nc(N[C@H](C)C2CC2)nc(-c2cncc(Cl)c2)n1)C1CC1 [Compound 278]
> 1000	50 to 100	–	–	–	50 to 100	C[C@@H](Nc1nc(N[C@H](C)C2CC2)nc(-c2cccc3[nH]ccc23)n1)C1CC1 [Compound 396]
50 to 100	–	–	< 50	–	–	N#CC1(c2cc(Nc3nc(NC4CCC(F)(F)CC4)nc(-c4cncc(C(F)F)n4)n3)ccn2)CC1 [Compound 338]
> 1000	< 50	< 50	–	–	–	N#CC1(c2cc(Nc3nc(N[C@H]4CCC(F)(F)C4)nc(-c4nccc(C(F)(F)F)n4)n3)ccn2)CC1 [Compound 376]
–	< 50	< 50	–	100 to 1000	–	CC(C)(O)CNc1nc(Nc2ccnc(C3(C#N)CC3)c2)nc(-c2cccc(C(F)(F)F)n2)n1 [Compound 259]
< 50	–	–	< 50	–	–	C[C@H](Nc1nc(Nc2ccnc(C3(C#N)CC3)c2)nc(-c2cncc(C(F)F)n2)n1)C(F)(F)F [Compound 337]
< 50	–	–	< 50	–	–	C[C@@H](Nc1nc(N[C@H](C)C(F)(F)F)nc(-c2cccc(C(F)(F)F)n2)n1)C(F)(F)F [Compound 335]
–	–	–	< 50	< 50	–	FC1(F)CCC(Nc2nc(NC3CC(c4ccccc4)C3)nc(-c3cccc(C(F)(F)F)n3)n2)C1 (centres unmarked) [Compound 208]
–	–	–	< 50	< 50	–	CC(Cc1ccccc1)Nc1nc(N[C@H](C)C2CC2)nc(-c2cccc(C(F)(F)F)n2)n1 (some centres unmarked) [Compound 206]
100 to 1000	< 50	< 50	–	–	–	CC(C)(O)CNc1nc(Nc2cc(F)cc(C#N)c2)nc(-c2cccc(C(C)(F)F)n2)n1 [Compound 398]
100 to 1000	< 50	< 50	–	–	–	FC1(F)CC[C@H](Nc2nc(Nc3ccnc(C(F)(F)F)c3)nc(-c3ccnc(C(F)(F)F)n3)n2)C1 [Compound 343]
–	> 1000	> 1000	–	100 to 1000	–	C[C@@H](Nc1nc(N[C@H](C)C2CC2)nc(-c2cccc(N)n2)n1)C1CC1 [Compound 285]
–	–	–	50 to 100	50 to 100	–	FC1(F)CCC(Nc2nc(NC3Cc4cc(Br)cc(Br)c4C3)nc(-c3cccc(C(F)(F)F)n3)n2)C1 (centres unmarked) [Compound 254]
100 to 1000	< 50	< 50	–	–	–	CC(C)(O)CNc1nc(Nc2cc(F)cc(C(F)(F)F)c2)nc(-c2cccc(C(C)(F)F)n2)n1 [Compound 397]
< 50	–	–	< 50	–	–	C[C@@H](Nc1nc(Nc2ccnc(C3(C#N)CC3)c2)nc(-c2cncc(C(F)F)n2)n1)C(F)(F)F [Compound 336]
–	–	–	< 50	< 50	–	C[C@@H](Nc1nc(NC2CCc3ccccc32)nc(-c2cccc(C(F)(F)F)n2)n1)C1CC1 (some centres unmarked) [Compound 135]
–	100 to 1000	100 to 1000	–	100 to 1000	–	CC(C)(O)CNc1nc(Nc2ccnc(C#N)c2)nc(-c2cccc(C(F)(F)F)n2)n1 [Compound 288]
